The CheMixHub drug solubility set

Assay: xn = mol fraction of the nth substance listed, in the solute-free solvent

CCCCCOC(=O)Nc1nc(=O)n(C2OC(C)C(O)C2O)cc1F (stereo unspecified) + CCOC(C)=O + CCCCCC
solubility (g/100 g solution)
Conditions	278.15 K	283.15 K	288.15 K	293.15 K	298.15 K	303.15 K	308.15 K	313.15 K	318.15 K	323.15 K
x2 = 0.09988	0.0133	0.0183	0.0254	0.0345	0.0462	0.0616	0.0815	0.107	0.139	0.18
x2 = 0.2008	0.0154	0.0212	0.0286	0.0382	0.0506	0.0664	0.0863	0.111	0.143	0.181
x2 = 0.3	0.0501	0.0621	0.0766	0.0936	0.113	0.137	0.165	0.197	0.233	0.276
x2 = 0.4	0.113	0.134	0.159	0.219	0.187	0.255	0.296	0.341	0.392	0.448
x2 = 0.5003	0.141	0.171	0.207	0.248	0.296	0.351	0.413	0.484	0.565	0.655
x2 = 0.6	0.309	0.384	0.474	0.581	0.706	0.853	1.02	1.22	1.45	1.71
x2 = 0.6998	0.423	0.535	0.67	0.833	1.03	1.26	1.53	1.85	2.22	2.65
x2 = 0.7998	0.53	0.694	0.902	1.16	1.48	1.87	2.34	2.91	3.58	4.39
x2 = 0.8999	0.819	1.09	1.43	1.85	2.38	3.04	3.84	4.8	5.96	7.33

Nc1ccc(Oc2ccc(N)cc2)cc1 + CC(=O)N(C)C + CCO
solubility (g/100 g solution)
Conditions	293.15 K	298.15 K	303.15 K	308.15 K	313.15 K	318.15 K	323.15 K	328.15 K	333.15 K
x2 = 0.0555	0.741	0.782	0.905	1.15	1.39	1.68	1.96	2.28	2.64
x2 = 0.1168	1.32	1.4	1.59	1.94	2.32	2.66	3	3.15	4.12
x2 = 0.1848	2.35	2.56	2.88	3.13	3.63	4.09	4.68	4.75	6.13
x2 = 0.2606	3.91	4.24	4.6	5.13	5.62	6.3	7.13	7.67	8.79
x2 = 0.3459	6.23	6.74	7.16	7.94	8.38	9.29	10.3	11	12.2
x2 = 0.4423	9.4	10	10.6	11.4	12	13.1	14	15.2	16.3
x2 = 0.5523	13.3	14.1	14.8	15.3	16.3	17.5	18.6	19.7	21.1
x2 = 0.679	17.9	18.6	19.3	20.2	21	22	23.2	24.2	25.1
x2 = 0.8264	22.6	23.5	24	24.5	25.6	26.7	27.4	28.7	30

COC(=O)C(C)(C)N=NC(C)(C)C(=O)OC + CO + O
Conditions	solubility (g/100 g solution)
252.55 K, x2 = 0.692	1.72
252.85 K, x2 = 0.914	5.48
252.95 K, x2 = 0.628	1.36
253.15 K, x2 = 0.835	4.25
253.35 K, x2 = 0.511	0.455
253.45 K, x2 = 0.578	0.701
254.15 K, x2 = 0.761	2.82
254.75 K, x2 = 0.692	2.04
255.35 K, x2 = 0.628	1.61
255.55 K, x2 = 0.914	7.08
255.95 K, x2 = 0.578	0.875
255.95 K, x2 = 0.835	5.53
256.55 K, x2 = 0.511	0.546
256.65 K, x2 = 0.761	3.73
257.35 K, x2 = 0.692	3.07
257.95 K, x2 = 0.628	2.02
258.55 K, x2 = 0.578	1.31
259.05 K, x2 = 0.511	0.817
259.85 K, x2 = 0.914	9.9
260.15 K, x2 = 0.835	7.93
260.55 K, x2 = 0.761	5.93
261.05 K, x2 = 0.692	4.39
261.65 K, x2 = 0.628	2.76
262.15 K, x2 = 0.578	2.5
262.75 K, x2 = 0.511	1.35
263.35 K, x2 = 0.914	12.7
263.75 K, x2 = 0.835	9.97
263.95 K, x2 = 0.761	6.93
264.35 K, x2 = 0.692	5.15
264.85 K, x2 = 0.628	4.05
265.25 K, x2 = 0.578	3.25
265.75 K, x2 = 0.511	2.24
265.95 K, x2 = 0.914	14.4
266.15 K, x2 = 0.835	11.5
266.35 K, x2 = 0.761	8.33
267.95 K, x2 = 0.511	3.2
268.05 K, x2 = 0.628	5.71
268.05 K, x2 = 0.692	7.96
268.05 K, x2 = 0.761	9.69
268.05 K, x2 = 0.835	12.8
268.05 K, x2 = 0.914	16.6
268.25 K, x2 = 0.578	5.05
273.25 K, x2 = 0.835	20.2
273.35 K, x2 = 0.511	5.31
273.35 K, x2 = 0.578	7.79
273.35 K, x2 = 0.628	9.15
273.35 K, x2 = 0.914	26.6
273.45 K, x2 = 0.692	12.2
273.55 K, x2 = 0.761	17.3
275.55 K, x2 = 0.914	32
275.65 K, x2 = 0.511	6.38
275.65 K, x2 = 0.578	8.78
275.65 K, x2 = 0.835	25.5
275.75 K, x2 = 0.692	16.8
275.75 K, x2 = 0.761	20.5
275.85 K, x2 = 0.628	12.8
278.15 K, x2 = 0.835	32.7
278.15 K, x2 = 0.914	38.9
278.25 K, x2 = 0.761	27.3
278.35 K, x2 = 0.511	7.35
278.35 K, x2 = 0.578	10.2
278.35 K, x2 = 0.628	16
278.35 K, x2 = 0.692	21.6
280.65 K, x2 = 0.914	47.1
280.75 K, x2 = 0.692	27.6
280.75 K, x2 = 0.761	33.4
280.75 K, x2 = 0.835	39.1
280.85 K, x2 = 0.628	20.5
280.95 K, x2 = 0.578	15.1
281.05 K, x2 = 0.511	9.61
283.05 K, x2 = 0.578	21
283.05 K, x2 = 0.835	51.4
283.05 K, x2 = 0.914	55.7
283.15 K, x2 = 0.692	36.3
283.15 K, x2 = 0.761	44.2
283.45 K, x2 = 0.511	12.7
283.45 K, x2 = 0.628	28.1
285.65 K, x2 = 0.835	62.4
285.65 K, x2 = 0.914	66.9
285.75 K, x2 = 0.578	29.5
285.75 K, x2 = 0.628	39
285.75 K, x2 = 0.692	48.6
285.75 K, x2 = 0.761	56.4
285.85 K, x2 = 0.511	19.1
288.15 K, x2 = 0.578	42.6
288.15 K, x2 = 0.628	55.9
288.25 K, x2 = 0.761	71.5
288.25 K, x2 = 0.835	75.3
288.25 K, x2 = 0.914	78.2
288.35 K, x2 = 0.692	65.6
290.65 K, x2 = 0.628	77.7
290.65 K, x2 = 0.914	86.1
290.75 K, x2 = 0.692	81.5
290.75 K, x2 = 0.761	83.9
290.75 K, x2 = 0.835	85.1
293.15 K, x2 = 0.761	91.5
293.15 K, x2 = 0.835	91.5
293.15 K, x2 = 0.914	91.9
293.25 K, x2 = 0.692	91.2
293.35 K, x2 = 0.628	91.1

Nc1cccc(S(=O)(=O)c2cccc(N)c2)c1 + CC(C)O + O
solubility (g/100 g solution)
Conditions	283.15 K	288.15 K	293.15 K	298.15 K	303.15 K	308.15 K	313.15 K	318.15 K	323.15 K	328.15 K
x2 = 0.03225	0.0588	0.08	0.109	0.143	0.188	0.248	0.319	0.411	0.517	0.662
x2 = 0.06974	0.109	0.146	0.196	0.259	0.34	0.424	0.549	0.698	0.874	1.09
x2 = 0.1139	0.169	0.219	0.286	0.375	0.488	0.618	0.782	0.98	1.22	1.52
x2 = 0.1666	0.236	0.312	0.396	0.516	0.657	0.834	1.05	1.3	1.59	1.98
x2 = 0.2307	0.299	0.388	0.5	0.652	0.816	1.02	1.28	1.6	1.97	2.4
x2 = 0.3103	0.36	0.459	0.599	0.751	0.954	1.2	1.51	1.84	2.24	2.73
x2 = 0.4117	0.398	0.513	0.662	0.841	1.07	1.34	1.65	2.05	2.48	3.01
x2 = 0.5454	0.424	0.54	0.702	0.895	1.11	1.4	1.71	2.14	2.62	3.17
x2 = 0.7297	0.432	0.543	0.686	0.878	1.11	1.38	1.72	2.09	2.57	3.12
